# Reference: US11655221B2, “Certain (2S)-N-[(1S)-1-cyano-2-phenylethyl]-1,4-oxazepane-2-carboxamides as dipeptidyl peptidase 1 inhibitors” (AstraZeneca AB, priority 2014, dated 2023)
# Columns and labels:
# [1] = Test B: In-vitro competitive aortic tissue binding assay; design: species or system rat; settings: 100 μM test compound, competition with [14C]-labelled WO2010/128324 Ex. 3, categories strong binder, medium binder, no binder
# Protocol: Test B: In-Vitro Competitive Aortic Tissue Binding Assay
# Aortic homogenate was prepared from the thoracic aortae of Han Wistar rats. Freshly isolated to thoracic aortae were frozen, and later thawed and stripped of non-elastic material.
# Homogenate concentration was adjusted to 30 mg/mL in Puck's saline, and aliquots were stored at −80° C. until use. Positive and negative control compounds and test compounds were made up to 100 mM in DMSO, and added to 1 mL aliquots of aortic homogenate in Puck's saline for a final concentration of 100 μM. Homogenate samples were pre-incubated with test compounds at 37° C., rotating, overnight. [^14C]4-Amino-N-[(1S)-1-cyano-2-(4′-cyanobiphenyl-4-yl)ethyl]tetrahydro-2H-pyran-4-carboxamide was then added to all samples to a final concentration of 100 μM, and samples were incubated at 37° C., rotating, for a further 2 h. Protein was precipitated from each sample by the addition of 10 mL acetone, pre-chilled to −20° C. Samples were left overnight at −20° C. to allow complete precipitation. Precipitate was pelleted by centrifugation at 4,500×g at 4° C. for 20 min, an aliquot of supernatant was removed for analysis, and the remainder of the supernatant discarded. Precipitate was washed by resuspension in 10 mL 80% methanol in distilled water, and re-pelleted by centrifugation at 4,500×g at 4° C. for 20 min. […] After final wash, precipitate was air-dried, and dissolved overnight in 1 mL NCSII Tissue Solubiliser. 1 mL aliquots of supernatants were added to 5 mL Ultima Gold scintillation fluid (Perkin Elmer, MA, U.S.A.), and 1 mL solubilised pellets were added to 5 mL Hionic-Fluor scintillation fluid (Perkin Elmer, Mass., U.S.A.). Radioactivity of samples was determined on a Beckman LS6500 multipurpose scintillation counter (Beckman Coulter, IN, U.S.A.). […] Duplicate samples were tested for each compound on each experimental occasion, and at least two experiments were run for each test compound. […] 1-way ANOVA and Bonferroni's multiple comparison tests were performed to calculate significance of differences from vehicle control.
# [2] = molecular target: recombinant human DPP1 (rhDPP1) (Homo sapiens (Human), UniProt P53634); assay: Test A1: Fluorescence assay for recombinant human (RH) DPP1; type: biochemical; settings: Test A1, H-Gly-Arg-AMC substrate, 22° C. (Examples 1-35)
# Chain of recombinant human DPP1 (rhDPP1) (P53634 231-394): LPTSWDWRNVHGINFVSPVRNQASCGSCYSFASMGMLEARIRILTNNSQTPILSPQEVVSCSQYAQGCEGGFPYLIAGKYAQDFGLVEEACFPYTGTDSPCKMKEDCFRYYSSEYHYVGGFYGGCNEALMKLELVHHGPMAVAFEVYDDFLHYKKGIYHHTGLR
# Chain of recombinant human DPP1 (rhDPP1) (P53634 25-143): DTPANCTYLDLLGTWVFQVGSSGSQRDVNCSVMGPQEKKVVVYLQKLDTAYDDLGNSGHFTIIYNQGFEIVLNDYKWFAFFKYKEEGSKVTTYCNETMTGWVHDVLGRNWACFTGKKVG
# Chain of recombinant human DPP1 (rhDPP1) (P53634 395-463): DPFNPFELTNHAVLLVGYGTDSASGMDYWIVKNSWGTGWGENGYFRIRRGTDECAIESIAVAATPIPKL
# Protocol: Test A1: Fluorescence Assay for Recombinant Human (RH) DPP1
# The activity of DPP1 was determined by measuring the enzymatic release of aminomethyl coumarin (AMC) from the peptide substrate (H-Gly-Arg-AMC), which leads to an increase in fluorescence intensity at λex=350 nm and λem=450 nm. The assay was carried out in black 384 well plates in a final volume of 50 μl at 22° C. The assay conditions contained the following: 25 mM piperazine buffer pH 5.0; 50 mM NaCl, 5 mM DTT; 0.01% (v/v) Triton X-100; 100 μM H-Gly-Arg-AMC and rhDPP1 (˜50 pM). […] Routinely, inhibitors were pre-incubated with rhDPP1 for 30-60 min prior to the addition of the peptide substrate to start the reaction for a further 60 min at 22° C.
# [3] = Quantitative whole-body autoradiography (QWBA), aortic retention; type: in vivo
Compound,Aortic Tissue Binding [1],"DPP1 activity, pIC50 [2]",aortic retention in rat QWBA studies [3]
"Cn1c(=O)oc2ccc(-c3ccc(C[C@@H](C#N)NC(=O)[C@@H]4CNCCCO4)cc3)cc21 [Example 2, (2S)—N-{(1S)-1-Cyano-2-[4-(3-methyl-2-oxo-2,3-dihydro-1,3-benzoxazol-5-yl)phenyl]ethyl}-1,4-oxazepane-2-carboxamide]",No binder,–,–
"CN1C(=O)CNc2ccc(-c3ccc(C[C@@H](C#N)NC(=O)[C@@H]4CNCCCO4)cc3)cc21 [Example 35, (2S)—N-{(1S)-1-Cyano-2-[4-(4-methyl-3-oxo-1,2,3,4-tetrahydroquinoxalin-6-yl)phenyl]ethyl}-1,4-oxazepane-2-carboxamide]",–,7.61,–
N#Cc1ccc(-c2ccc(C[C@@H](C#N)NC(=O)[C@@H]3CCCCN3)cc2)cc1 [WO2009/074829 (Example 24)],Binder,–,–
Cn1c(=O)oc2ccc(-c3ccc(C[C@@H](C#N)NC(=O)[C@@H]4CCCCN4)cc3)cc21 [WO2009/074829 (Example 96)],Medium binder,–,–
"N#Cc1ccc(-c2ccc(C[C@@H](C#N)NC(=O)C3(N)CCOCC3)cc2)cc1 [WO2010/128324 (Ex. 3), 4-amino-N-[(1S)-1-cyano-2-(4′-cyanobiphenyl-4-yl)ethyl]tetrahydro-2H-pyran-4-carboxamide]",Strong binder (reference),–,high level of aortic retention
Cn1c(=O)oc2ccc(-c3ccc(C[C@@H](C#N)NC(=O)C4(N)CCOCC4)cc3)cc21 [WO2010/128324 (Example 17)],Strong binder,–,–
